# Source: patent US11058756B2, “Compositions and methods of treating autoimmune disease by reducing enterococcus” (YALE UNIVERSITY, priority 2017, dated 2021)
# What was measured:
# (NZWxBXSB)F1 mice = experiment: Serum ELISAs for anti-dsDNA, anti-RNA, anti-β2GPI IgG, ERV gp70 protein and anti-ERV gp70 immune complexes; type: in vivo, mouse
# From the text: (§1) Mice were cohoused for 3 to 4 weeks before antibiotic treatment to allow for equilibration of the microbiota. Single antibiotic or broad-spectrum antibiotic administration consisted of metronidazole (1 g/liter; Fisher Scientific), neomycin (1 g/liter; Fisher Scientific), ampicillin (1 g/liter; Sigma) and vancomycin (0.5 g/liter; Acros Organics) in the drinking water for up to 22 weeks or a targeted regiment for 2 weeks and then replaced with regular water for the duration of the experiment. For broad-spectrum antibiotic experiments (vancomycin, ampicillin, metronidazole, and neomycin combined), sweetener (Equal, 4 g/L) was added to both the antibiotics and control water due to the metallic taste of metronidazole. Twenty-four hours after cessation of antibiotic water, mice were administered 1×10^6 CFUs of vancomycin-resistant E. gallinarum via oral gavage, isolated from liver tissue of a vancomycin-treated mouse that continued to show signs of autoimmune disease (high-level resistance was confirmed by vanC gene PCR). E. gallinarum was grown at 37° C. in Gifu Anaerobic Broth (HIMEDIA Laboratories) to early stationary phase under anaerobic conditions (82% N2, 15% CO2, 3% H2 by volume) in an anaerobic chamber and diluted in PBS to 10^7 CFUs.
# Serum antibodies specific for dsDNA and b2GPI were determined using standardized ELISAs (anti-dsDNA antibody, Abcam; and, Mouse/Rat Apolipoprotein H Antibody, R&D Systems; respectively). Anti-RNA was determined by ELISA using defined positive controls (Human/Mouse RNA Polymerase II Antibody, R&D systems). Anti-ERV gp70 ICs and ERV gp70 protein were determined by OD450 signal comparisons (Evans et al., 1990, J Virol, 64, 6176-6183). For anti-dsDNA ELISAs, DNA-BIND™ (Corning) plates were coated with 100 μg/ml salmon sperm DNA (Fisher Scientific) and blocked in 0.1M PBS, 3.0% BSA, 5.0% FBS. The serum was diluted 1:1000 for the assay and incubated for 1 hour at 37° C. Wells were washed and incubated for 1 hour at 37° C. with rabbit anti-mouse IgG (Fisher Scientific) conjugated to HRP and developed with TMB substrate solution. 2M sulfuric acid (Sigma) solution was used to stop development. The concentration of anti-dsDNA was determined by reading the absorbance at 450 nm/570 nm reference.
# For anti-RNA ELISAs, DNA-BIND™ (Corning) plates were coated with […] yeast RNA (Ambion) and blocked in 0.1M PBS, 0.05% Tween-20, 5.0% FBS. The serum was diluted 1:1000 for the assay and incubated for 1 hour at 37° C. Wells were washed and incubated for 1 hour at 37° C. with rabbit anti-mouse IgG (Fisher Scientific) conjugated to HRP and developed with TMB substrate solution. 2M sulfuric acid (Sigma) solution was used to stop development. The concentration of anti-RNA IgG was determined by reading the absorbance at 450 nm/570 nm reference.
# For anti-b2GPI ELISAs, Corning® 96-well EIA/RIA easy Wash™ clear flat-bottom polystyrene high-bind microplates were coated with […] recombinant b2GPI/ApoH (R&D Systems) and blocked in Pierce Protein-Free (PBS) Blocking Buffer (Thermo Scientific). The serum was diluted 1:100 for the assay and incubated at room temperature for 2 hours on a shaker. Wells were washed and incubated while shaking for 30 minutes at room temperature with goat anti-mouse IgG (Fisher Scientific) conjugated to HRP and developed with TMB substrate solution. 2M sulfuric acid (Sigma) solution was used to stop development. The concentration of anti-b2GPI was determined by reading the absorbance at 450 nm/650 nm reference. […]
# MLN Th17 cells = experiment: Vancomycin in vitro assay on MLN cell cultures (Th17 frequency by FACS); type: cell-based, mouse; details: vancomycin 16 μg/mL, anti-CD3/anti-CD28, 3 days (FIG. 19D legend)
# Protocol: […] In vitro samples were stained as described above. All samples were collected using an LSR II flow cytometer (Becton Dickinson). All flow cytometry data were analyzed by FlowJo version 9.7 (Tree Star).
# ERV gp70 = experiment: Liver ERV gp70 expression by RT-qPCR after oral antibiotics; type: in vivo, mouse; details: oral vancomycin; FIG. 7
# From the text: as §1, with “E. gallinarum was grown at 37° C. in Gifu Anaerobic Broth (HIMEDIA Laboratories) to early stationary phase under anaerobic conditions (82% N2, 15% CO2, 3% H2 by volume) in an anaerobic chamber and diluted in PBS to 10^7 CFUs.” left out
# RNA was isolated from hepatocytes, dendritic cells or ileum using the RNAeasy plus mini kit (Qiagen) according to the manufacturer's instructions. cDNA was generated using the QuantiTect Reverse Transcription Kit (Qiagen). […]
smiles,measurement,setting,value
CN[C@H](CC(C)C)C(=O)N[C@H]1C(=O)N[C@@H](CC(N)=O)C(=O)N[C@H]2C(=O)N[C@H]3C(=O)N[C@H](C(=O)N[C@H](C(=O)O)c4cc(O)cc(O)c4-c4cc3ccc4O)[C@H](O)c3ccc(c(Cl)c3)Oc3cc2cc(c3O[C@@H]2O[C@H](CO)[C@@H](O)[C@H](O)[C@H]2O[C@H]2C[C@](C)(N)[C@H](O)[C@H](C)O2)Oc2ccc(cc2Cl)[C@H]1O [vancomycin],lupus-related autoantibodies (serum anti-dsDNA and anti-RNA IgG),"(NZWxBXSB)F1 mice; single antibiotic in drinking water, 16 weeks of age, FIG. 1B-1C",prevented
same,anti-β2GPI,"(NZWxBXSB)F1 mice; vancomycin 0.5 g/L in drinking water from 6 weeks of age, FIG. 7",suppressed
same,serum ERV gp70,"(NZWxBXSB)F1 mice; vancomycin 0.5 g/L in drinking water from 6 weeks of age, FIG. 7K",suppressed
same,anti-ERV gp70 immune complexes (ICs),"(NZWxBXSB)F1 mice; vancomycin 0.5 g/L in drinking water from 6 weeks of age, FIG. 7L",suppressed
same,direct influence on immune cells in vitro (MLN Th17 cell frequency),MLN Th17 cells,no direct influence
same,hepatic ERV gp70,ERV gp70,suppressed
